One data set has as its system ATR. As to conditions: reference 10; cited from earlier work.
In another data set the test system is ATM. As to conditions: reference 10; cited from earlier work.
The conditions of data set [1]: references 11, 12, 13; cited from earlier work.
The subject of another data set is active lesions (acne). Nature of the data set: Combined analysis of acne lesion clearance, Examples 3, 6 and 7 (FIG. 6). The data set is classed as in vivo, human. As to conditions: pre- and final post-treatment data of Examples 3, 6 and 7; P 0.005 paired, two-tailed T-test.
For data set [2] the following is noted: clinical trials; reference 17; cited from earlier work.
Another data set has as its system acne. Nature of the data set: Theobromine treatment of acne (comparative Examples 8-11). As to conditions: 0.5% theobromine topical; for improvement of acne: data not shown. The class given is in vivo, human. As for the experimental part:
A patient presented with acne bilaterally on their face. The acne presented as active inflammatory reaction or as visible white liquid-filled extrusions. For the purposes of the test, the affected area was split into two sections, left cheek and right cheek. The right face was treated with 0.5% theobromine topical preparation solution. The theobromine solution was prepared in 25% ethanol and 50% glycerol, adjusted to pH 8 via 100 mM sodium hydrogen carbonate solution.
For the purposes of the treatment, theobromine solution was applied to the right side of the face in a thin film using 100-200 μL of the solution (2-4 drops). The solution was left to dry and penetrate the skin for 20 minutes, after which both sides of the face were covered in the photosensitizer cream as per manufacturer's instructions, using 1-1.5 g of cream. The cream was left to penetrate the skin for 5-10 minutes and the patient was asked not to wash their face for 2 hours.
The patient was assessed first prior to treatment and subsequently 1 month after for the success and quantification of active acne on each side of the face by a qualified dermatologist.
A patient presented with acne bilaterally on their face. The acne presented as active inflammatory reaction or as visible white liquid-filled extrusions. For the purposes of the test, the affected area was split into two sections, left cheek and right cheek. The left face was treated with 0.5% theobromine topical preparation solution. The theobromine solution was prepared in 25% ethanol and 50% glycerol, adjusted to pH 8 via 100 mM sodium hydrogen carbonate solution.
For the purposes of the treatment, theobromine solution was applied to the left side of the face in a thin film using 100-200 μL of the solution (2-4 drops). […]
The patient was assessed first prior to treatment and subsequently 6 weeks after for the success and quantification of active acne on each side of the face by a qualified dermatologist.

A further data set deals with DNA repair. As to conditions: in vitro, through modulating the activity of ATM/ATR kinases, as well as PARP; references 10,11,12,14; cited from earlier work.
A further data set has as its system PARP. As to conditions: only compound with activity on PARP in addition to ATM and ATR; cited from earlier work.
Another data set concerns actinic keratoses. Nature of the data set: Theobromine alone on actinic keratoses (comparative Examples 4 and 5). The class given is in vivo, human. As to conditions: 0.5% theobromine solution applied once, 1 month later. The method, then: A person presented with actinic keratoses on their scalp. Three actinic keratoses were selected by a qualified dermatologist and treated once with 0.5% theobromine topical preparation solution. The theobromine solution was prepared in 25% ethanol and 50% glycerol, adjusted to pH 8 via 100 mM sodium hydrogen carbonate solution. For treatment, theobromine solution was applied to the selected lesions of the scalp in a thin aqueous film using 50 μL of the solution per lesion (1 drop). The solution was left to dry and permeate the skin for 20 minutes. The position of the lesions was marked with a water-soluble marker and the lesions were photographed. The patient was reviewed 1 month later by a qualified dermatologist and the lesions were compared with the baseline photographs.
A person presented with actinic keratoses on their face and scalp. An actinic keratosis was selected by a qualified dermatologist on their right cheek and treated once with 0.5% theobromine topical preparation solution. The theobromine solution was prepared in 25% ethanol and 50% glycerol, adjusted to pH 8 via 100 mM sodium hydrogen carbonate solution. For treatment, theobromine solution was applied to the selected lesions of the […] in a thin aqueous film using 50 μL of the solution per lesion (1 drop). The solution was left to dry and permeate the skin for 20 minutes. […]

Molecules are shown by their SMILES. Entries after “also recorded” stand apart in the source; their conditions may differ.

On to `Cn1c(=O)c2c(ncn2C)n(C)c1=O` [caffeine], for which the ATR inhibition entry in the data set with ATR was “inhibitors of both ATM and ATR”. Besides, in the data set on ATM, the ATM inhibition entry is “inhibitors of both ATM and ATR”. The radiosensitising activity entry in [1] is reported as “radiosensitisers”.
As to `COC(=O)CCC(=O)CN` [methyl aminolevulinate], in the data set on active lesions (acne), the “average clearance of active lesions” value was 32%.
Turning to `CC(=O)CCCCn1c(=O)c2c(ncn2C)n(C)c1=O` [pentoxyphilline], the “clinical benefit as radiosensitiser” value in [2] is recorded as “failed to provide consistent benefits”. Moreover, the radiosensitising activity entry in [1] was “radiosensitisers”.
Regarding `Cn1cnc2c1c(=O)[nH]c(=O)n2C` [theobromine], the patient-reported adverse effects result in the data set on acne (1 month (Examples 8, 9, 10) or 6 weeks (Example 11)) is listed as “No patient-reported adverse effects”. The improvement of acne result in the data set with acne (1 month after (Examples 8, 9, 10)) is “did not improve acne”; with acne (6 weeks after (Example 11)), “did not improve acne”. In the data set on DNA repair, the “inhibition of DNA repair” value was “inhibit DNA repair in vitro”. Moreover, the PARP inhibitory activity entry in the data set with PARP is given as “measurable PARP inhibitory activity”. In addition, the ATR inhibition result in the data set on ATR is “inhibitors of both ATM and ATR”. For the same compound, the ATM inhibition result with ATM is “inhibitors of both ATM and ATR”. In addition, the radiosensitising activity entry in [1] is “radiosensitisers”. Besides, the “improvement of actinic keratosis” value with actinic keratoses (no photosensitizer) is “No improvement of actinic keratoses was observed; also recorded: No improvement of actinic keratosis was observed”. Besides, the redness or soreness result in the data set with actinic keratoses is listed as “No redness or soreness were observed”.
Take `Cn1c(=O)c2[nH]cnc2n(C)c1=O` [theophylline]: the radiosensitising activity result in [1] is reported as “radiosensitisers”.

Values taken from US20260325645A1, “IMPROVEMENTS IN OR RELATING TO COMPOSITIONS FOR IMPROVEMENT OF PHOTODYNAMIC THERAPY” (SYDERMA LTD, priority 2023, published 2026).
